These results are taken from patent publication US20210139467A1 (GLAXOSMITHKLINE INTELLECTUAL PROPERTY DEVELOPMENT LIMITED, priority 2017, published 2021).

In the assay the target is IDO1 (Homo sapiens, UniProt P14902). The experiment in a line: IDO1 PBMC RapidFire MS Assay. The class given is cell-based. Also on record: stimulated with human interferon-γ (IFN-γ); host or cells: human PBMC stimulated with IFN-gamma and LPS. The following applies: human PBMC stimulated with IFN-γ and LPS; kynurenine detected by mass spectrometry; 2 days; read-out: IDO1 PBMC pIC50 (converted). How it is done: IDO1 PBMC RapidFire MS Assay
Sequence of IDO1 (P14902 whole entry): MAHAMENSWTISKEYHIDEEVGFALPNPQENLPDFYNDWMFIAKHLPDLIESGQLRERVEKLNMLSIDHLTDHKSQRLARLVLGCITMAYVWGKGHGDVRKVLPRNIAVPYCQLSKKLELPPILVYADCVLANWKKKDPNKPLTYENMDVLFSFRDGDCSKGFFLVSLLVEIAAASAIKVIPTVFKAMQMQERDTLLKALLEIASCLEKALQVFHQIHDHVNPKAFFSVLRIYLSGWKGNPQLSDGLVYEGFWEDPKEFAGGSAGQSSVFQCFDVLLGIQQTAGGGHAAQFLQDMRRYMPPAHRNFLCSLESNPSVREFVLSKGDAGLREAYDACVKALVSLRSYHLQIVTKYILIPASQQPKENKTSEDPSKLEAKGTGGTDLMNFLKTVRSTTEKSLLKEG
Compounds of the present invention were tested via high-throughput cellular assays utilizing detection of kynurenine via mass spectrometry and cytotoxicity as end-points. For the mass spectrometry and cytotoxicity assays, human peripheral blood mononuclear cells (PBMC) (PB003F; AllCells®, Alameda, Calif.) were stimulated with human interferon-γ (IFN-γ) (Sigma-Aldrich Corporation, St. Louis, Mo.) and lipopolysaccharide from Salmonella minnesota (LPS) (Invivogen, San Diego, Calif.) to induce the expression of indoleamine 2, 3-dioxygenase (IDO1). Compounds with IDO1 inhibitory properties decreased the amount of kynurenine produced by the cells via the tryptophan catabolic pathway. Cellular toxicity due to the effect of compound treatment was measured using CellTiter-Glo® reagent (CTG) (Promega Corporation, Madison, Wis.), which is based on luminescent detection of ATP, an indicator of metabolically active cells.
In preparation for the assays, test compounds were serially diluted 3-fold in DMSO from a typical top concentration of 1 mM or 5 mM and plated at 0.5 μL in 384-well, polystyrene, clear bottom, tissue culture treated plates with lids (Greiner Bio-One, Kremsmünster, Austria) to generate 11-point dose response curves. Low control wells (0% kynurenine or 100% cytotoxicity) contained either 0.5 μL of DMSO in the presence of unstimulated (−IFN-γ/-LPS) PBMCs for the mass spectrometry assay or 0.5 μL of DMSO in the absence of cells for the cytotoxicity assay, and high control wells (100% kynurenine or 0% cytotoxicity) contained 0.5 μL of DMSO in the presence of stimulated (+IFN-γ/+LPS) PBMCs for both the mass spectrometry and cytotoxicity assays.
Frozen stocks of PBMCs were washed and recovered in RPMI 1640 medium (Thermo Fisher Scientific, Inc., Waltham, Mass.) supplemented with 10% v/v heat-inactivated fetal bovine serum (FBS) (Thermo Fisher Scientific, Inc., Waltham, Mass.), and 1× penicillin-streptomycin antibiotic solution (Thermo Fisher Scientific, Inc., Waltham, Mass.). The cells were diluted to 1,000,000 cells/mL in the supplemented RPMI 1640 medium. 50 μL of either the cell suspension, for the mass spectrometry assay, or medium alone, for the cytotoxicity assay, were added to the low control wells, on the previously prepared 384-well compound plates, resulting in 50,000 cells/well or 0 cells/well respectively. IFN-γ and LPS were added to the remaining cell suspension at final concentrations of 100 ng/ml and 50 ng/ml respectively, and 50 μL of the stimulated cells were added to all remaining wells on the 384-well compound plates. The plates, with lids, were then placed in a 37° C., 5% CO2 humidified incubator for 2 days.
Following incubation, the 384-well plates were removed from the incubator and allowed to equilibrate to room temperature for 30 minutes. For the cytotoxicity assay, CellTiter-Glo® was prepared according to the manufacturer's instructions, and 40 μL were added to each plate well. After a twenty minute incubation at room temperature, luminescence was read on an EnVision® Multilabel Reader (PerkinElmer Inc., Waltham, Mass.). For the mass spectrometry assay, 10 μL of supernatant from each well of the compound-treated plates were added to 40 μL of acetonitrile, containing 10 μM of an internal standard for normalization, in 384-well, polypropylene, V-bottom plates (Greiner Bio-One, Kremsmünster, Austria) to extract the organic analytes. Following centrifugation at 2000 rpm for 10 minutes, 10 μL from each well of the acetonitrile extraction plates were added to 90 μL of sterile, distilled H2O in 384-well, polypropylene, V-bottom plates for analysis of kynurenine and the internal standard on the RapidFire 300 (Agilent Technologies, Santa Clara, Calif.) and 4000 QTRAP MS (SCIEX, Framingham, Mass.). MS data were integrated using Agilent Technologies' RapidFire Integrator software, and data were normalized for analysis as a ratio of kynurenine to the internal standard. […]

Turning to `CC(C)CN(c1ccc(C(C)(C)C(=O)O)cc1Nc1ccc(Cl)cn1)C1CCOCC1` [Example 1, 2-(3-((5-chloropyridin-2-yl)amino)-4-(isobutyl(tetrahydro-2H-pyran-4-yl)amino)phenyl)-2-methylpropanoic acid], the IC50 is 3.16 nM.

Take `CC(C)CN(c1ccc(C(C)(C)C(=O)NS(C)(=O)=O)cc1Nc1ccc(Cl)cn1)C1CCOCC1` [Example 2, 2-(3-((5-chloropyridin-2-yl)amino)-4-(isobutyl(tetrahydro-2H-pyran-4-yl)amino)phenyl)-2-methyl-N-(methylsulfonyl)propanamide]: the IC50 was 1.58 nM.

Take `CC(C)CN(c1ccc(C(C)(C)C(=O)NS(=O)(=O)C(F)(F)F)cc1Nc1ccc(Cl)cn1)C1CCOCC1` [Example 3, 2-(3-((5-chloropyridin-2-yl)amino)-4-(isobutyl(tetrahydro-2H-pyran-4-yl)amino)phenyl)-2-methyl-N-((trifluoromethyl)sulfonyl)propanamide]: the IC50 is 20 nM.

Take `CC(C)CN(c1ccc(C2(C(=O)NS(C)(=O)=O)CC2)cc1Nc1ccc(Cl)cn1)C1CCOCC1` [Example 4, 1-(3-((5-chloropyridin-2-yl)amino)-4-(isobutyl(tetrahydro-2H-pyran-4-yl)amino)phenyl)-N-(methylsulfonyl)cyclopropane-1-carboxamide]: the IC50 was 0.794 nM.

In the case of `CC(C)CN(c1ccc(C2(C(=O)O)CC2)cc1Nc1ccc(Cl)cn1)C1CCOCC1` [Example 5, 1-(3-((5-chloropyridin-2-yl)amino)-4-(isobutyl(tetrahydro-2H-pyran-4-yl)amino)phenyl)cyclopropane-1-carboxylic acid], the IC50 is 6.31 nM.

As to `CC(C)CN(c1ncc(C(C)(C)C(=O)O)cc1Nc1ccc(Cl)cn1)C1CCOCC1` [Example 6, 2-(5-((5-chloropyridin-2-yl)amino)-6-(isobutyl(tetrahydro-2H-pyran-4-yl)amino)pyridin-3-yl)-2-methylpropanoic acid], the IC50 was 6.31 nM.

Regarding `CC(C)CN(c1ncc(C(C)(C)C(=O)NS(C)(=O)=O)cc1Nc1ccc(Cl)cn1)C1CCOCC1` [Example 7, 2-(5-((5-chloropyridin-2-yl)amino)-6-(isobutyl(tetrahydro-2H-pyran-4-yl)amino)pyridin-3-yl)-2-methyl-N-(methylsulfonyl)propanamide], the IC50 is 5.01 nM.

As for `CC(C)CN(c1ncc(C(C)(C)C(=O)NS(=O)(=O)C(F)(F)F)cc1Nc1ccc(Cl)cn1)C1CCOCC1` [Example 8, 2-(5-((5-chloropyridin-2-yl)amino)-6-(isobutyl(tetrahydro-2H-pyran-4-yl)amino)pyridin-3-yl)-2-methyl-N-((trifluoromethyl)sulfonyl)propanamide], the IC50 was 20 nM.

Regarding `CC(C)CN(c1ncc(C2(C(=O)O)CC2)cc1Nc1ccc(Cl)cn1)C1CCOCC1` [Example 9, 1-(5-((5-chloropyridin-2-yl)amino)-6-(isobutyl(tetrahydro-2H-pyran-4-yl)amino)pyridin-3-yl)cyclopropane-1-carboxylic acid], the IC50 is 7.94 nM.

For `CC(C)CN(c1ncc(C2(C(=O)NS(C)(=O)=O)CC2)cc1Nc1ccc(Cl)cn1)C1CCOCC1` [Example 10, 1-(5-((5-chloropyridin-2-yl)amino)-6-(isobutyl(tetrahydro-2H-pyran-4-yl)amino)pyridin-3-yl)-N-(methylsulfonyl)cyclopropane-1-carboxamide], the IC50 was 5.01 nM.

Regarding `CC(C)CN(c1ncc(C2(C(=O)NS(=O)(=O)C(F)(F)F)CC2)cc1Nc1ccc(Cl)cn1)C1CCOCC1` [Example 11, 1-(5-((5-chloropyridin-2-yl)amino)-6-(isobutyl(tetrahydro-2H-pyran-4-yl)amino)pyridin-3-yl)-N-((trifluoromethyl)sulfonyl)cyclopropane-1-carboxamide], the IC50 is 31.6 nM.

Regarding `CC(C)CN(CC(C)C)c1ccc(C(C)(C)C(=O)O)cc1Nc1ccc(Cl)cn1` [Example 12, 2-(3-((5-chloropyridin-2-yl)amino)-4-(diisobutylamino)phenyl)-2-methylpropanoic acid], the IC50 is 25.1 nM.

For the molecule `CC(C)CN(CC(C)C)c1ccc(C(C)(C)C(=O)O)cc1Nc1nc(C(F)(F)F)ns1` [Example 13, 2-(4-(diisobutylamino)-3-((3-(trifluoromethyl)-1,2,4-thiadiazol-5-yl)amino)phenyl)-2-methylpropanoic acid], the IC50 is 12.6 nM.

`CC(C)CN(c1ccc(C2(C(=O)O)CC2)cc1Nc1nnc(C2CC2)s1)C1CCOCC1` [Example 14, 1-(3-((5-cyclopropyl-1,3,4-thiadiazol-2-yl)amino)-4-(isobutyl(tetrahydro-2H-pyran-4-yl)amino)phenyl)cyclopropane-1-carboxylic acid]: the IC50 is 15.8 nM.

Take `CC(C)CN(c1ccc(C(C)(C)C(=O)O)nc1Nc1ccc(Cl)cn1)C1CCOCC1` [Example 17, 2-(6-((5-chloropyridin-2-yl)amino)-5-(isobutyl(tetrahydro-2H-pyran-4-yl)amino)pyridin-2-yl)-2-methylpropanoic acid]: the IC50 is 6.31 nM.

With `CC(C)CN(c1ccc(C(C)(C)C(=O)NS(C)(=O)=O)nc1Nc1ccc(Cl)cn1)C1CCOCC1` [Example 18, 2-(6-((5-chloropyridin-2-yl)amino)-5-(isobutyl(tetrahydro-2H-pyran-4-yl)amino)pyridin-2-yl)-2-methyl-N-(methylsulfonyl)propanamide], the IC50 is 3.16 nM.

Take `CC(C)CN(c1ccc(C2(C(=O)NS(C)(=O)=O)CC2)cc1Nc1nnc(C2CC2)s1)C1CCOCC1` [Example 19, 1-(3-((5-cyclopropyl-1,3,4-thiadiazol-2-yl)amino)-4-(isobutyl(tetrahydro-2H-pyran-4-yl)amino)phenyl)-N-(methylsulfonyl)cyclopropane-1-carboxamide]: the IC50 is 5.01 nM.

Regarding `COc1ncc(Nc2cc(C3(C(=O)NS(C)(=O)=O)CC3)ccc2N(CC(C)C)C2CCOCC2)cn1` [Example 20, 1-(4-(isobutyl(tetrahydro-2H-pyran-4-yl)amino)-3-((2-methoxypyrimidin-5-yl)amino)phenyl)-N-(methylsulfonyl)cyclopropane-1-carboxamide], the IC50 was 12.6 nM.

For the molecule `COCc1ccc(Nc2cc(C3(C(=O)NS(C)(=O)=O)CC3)ccc2N(CC(C)C)C2CCOCC2)cn1` [Example 21, 1-(4-(isobutyl(tetrahydro-2H-pyran-4-yl)amino)-3-((6-(methoxymethyl)pyridin-3-yl)amino)phenyl)-N-(methylsulfonyl)cyclopropane-1-carboxamide], the IC50 was 39.8 nM.

As for `CC(C)CN(c1ccc(C2(C(=O)NS(C)(=O)=O)CC2)cc1Nc1cnc(C(N)=O)nc1)C1CCOCC1` [Example 22], the IC50 is above 10000 nM.

Consider `CC(C)CN(c1ccc(C2(C(=O)NS(C)(=O)=O)CC2)cc1Nc1cnc(C#N)nc1)C1CCOCC1` [Example 23], for which the IC50 was 50.1 nM.

As for `CC(C)CN(c1cnc(C2(C(=O)O)CC2)cc1Nc1ccc(Cl)cn1)C1CCOCC1` [Example 25], the IC50 was 50.1 nM.
